Laboratory results as given in PMC8999917, “Structure–Activity Relationship of Synthetic Ginkgolic Acid Analogs for Treating Type 2 Diabetes by PTPN9 Inhibition” (International Journal of Molecular Sciences, 2022).

Assays:
[1] = test system: Akt phosphorylation in PA-induced insulin-resistant C2C12 cells; assay: Palmitic acid-induced insulin resistance in C2C12 myotubes (p-Akt); format: cell-based, mouse; settings: PA (250 µM, 16 h)-treated C2C12, 5 μM compound for 30 min with 100 nM insulin
Protocol: Since insulin plays an important role in regulating glucose metabolism through the redistribution of GLUT4 from intracellular vesicles to the cell surface, it is important to describe the interaction between 1e and insulin in the Akt pathway. […] Next, we evaluated the protective effects of 1e against PA-induced insulin resistance in C2C12 myotubes. To generate an insulin resistance model, C2C12 myotubes were treated with 250 µM PA in a serum-free medium for 16 h. Akt phosphorylation levels in PA-treated C2C12 cells decreased by 50% compared to levels in normal C2C12 cells (Figure 6C). Furthermore, in the presence of insulin and GA, Akt phosphorylation levels decreased only by 30% compared to levels in normal cells. […] In addition, the GA analogs induced no cytotoxic effects in C2C12 muscle cells (data not shown). […] The expression levels of glucose uptake-related proteins were determined via Western blotting, as previously described. In brief, differentiated 3T3-L1 cells were plated in six-well plates at a 1.5 × 10^4 cells/well density in a final volume of 2 mL. […] Secondary antibodies were added to the membranes at a concentration of 1:2000 for 1 h at room temperature, and immunoreactive bands were detected via ECL (GE Healthcare Korea Co., Ltd., Incheon, Korea). […]

Akt phosphorylation = assay: Western blot of Akt phosphorylation in C2C12 myotubes; format: cell-based, mouse
Text: To further investigate the mechanism of action of 1e, we evaluated its effects on AMPK and AKT phosphorylation in C2C12 myotubes. […] In line with the results obtained in 3T3-L1 cells, in the absence of insulin, 1e had no effects on basal p-Akt expression levels (Figure 6A). Since insulin plays an important role in regulating glucose metabolism through the redistribution of GLUT4 from intracellular vesicles to the cell surface, it is important to describe the interaction between 1e and insulin in the Akt pathway. […] Next, we evaluated the protective effects of 1e against PA-induced insulin resistance in C2C12 myotubes. To generate an insulin resistance model, C2C12 myotubes were treated with 250 µM PA in a serum-free medium for 16 h. Akt phosphorylation levels in PA-treated C2C12 cells decreased by 50% compared to levels in normal C2C12 cells (Figure 6C). Furthermore, in the presence of insulin and GA, Akt phosphorylation levels decreased only by 30% compared to levels in normal cells. […] The expression levels of glucose uptake-related proteins were determined via Western blotting, as previously described. […] Secondary antibodies were added to the membranes at a concentration of 1:2000 for 1 h at room temperature, and immunoreactive bands were detected via ECL (GE Healthcare Korea Co., Ltd., Incheon, Korea). […]

CCCCCCCCCCCCCOc1cccc(O)c1C(=O)O [Compound 1e]
Akt phosphorylation in PA-induced insulin-resistant C2C12 cells [1]: restoring it to levels similar to those in the non-insulin-resistant group
Akt phosphorylation on co-treatment with insulin (Akt phosphorylation; 100 nM insulin): synergistic Akt phosphorylation-improving effects with insulin
basal p-Akt expression levels (Akt phosphorylation; absence of insulin): no effects
